In patent publication US20090203605A1, “Methods For Treating A Condition Characterized By Dysfunction In Protein Homeostasis” (THE SCRIPPS RESEARCH INSTITUTE, priority 2008, published 2009):

System: N370S/84GG GC
Experiment: GC activity assay in N370S/84GG GC fibroblasts
Format: cell-based, human
Conditions: diltiazem 10 μM, 5-day treatment
Procedure: Enzyme activity assays. The intact cell GC activity assay has been previously described. Sawkar et al., Proc Natl Acad Sci USA 99: 15428-15433, 2002. Briefly, cells were plated into 48-well assay plates (500 μl per well). After cell attachment, the media was replaced by media containing small molecules. Media was changed every 3 days. […] The monolayers were washed by DPBS. The reaction was started by the addition of 150 μl of 3 mM 4-methylumbelliferyl β-D-glucopyranoside in 0.2 M acetate buffer (pH 4.0) to each well, followed by incubation at 37° C. for 1 hour to 7 hours. CBE was used as a control to evaluate the extent of nonspecific GC activity. […] Liberated 4-methylumbelliferone was measured (excitation 365 nm, emission 445 nm) with a SpectraMax Gemini plate reader (Molecular Device, Sunnyvale, Calif.). The lysed cell GC activity assay has been previously described. Sawkar et al., Proc Natl Acad Sci USA 99: 15428-15433, 2002. […] Total cell protein was measured using the Micro BCA assay reagent (Pierce, Rockford, Ill., #23235). 30 μg of total cell protein was assayed for the GC activity in 100 μl of 0.1 M acetate buffer (pH 5.0) containing 3 mM 4-methylumbelliferyl β-D-glucopyranoside in the presence of 0.15% Triton X-100 (v/v, Fisher) and 0.15% taurodeoxycholate (w/v, Calbiochem). CBE was used as a control to evaluate the extent of nonspecific GC activity. […]

Compound: COc1ccc([C@@H]2Sc3ccccc3N(CCN(C)C)C(=O)[C@@H]2OC(C)=O)cc1.Cl [diltiazem, Diltiazem hydrochloride]
- N370S/84GG GC activity as % of cellular WT GC activity: ≈ 36%
